Results published in ChEMBL document CHEMBL3046226, “Novel glycol benzyl ether herbicides: Herbicidal activity of 3,3a,5,9b-tetrahydro-2H-furo[3,2-c][2]benzopyran derivatives” (2006).
Values after ≈ are worked out from the molar mass of the structure shown.

Key:
Type in all cases: functional
[1] = tested on: Oryza sativa; test: Phytotoxicity in Oryza sativa (rice) assessed as assessed as growth rate at 30 g/acre by Oryza sativa (rice) injury assay
[2] = tested on: Echinochloa crus-galli; test: Herbicidal activity against Echinochloa crus-galli (barnyard grass) assessed as growth rate at 30 g/acre
[3] = tested on: Echinochloa crus-galli; test: Herbicidal activity against Echinochloa crus-galli (barnyard grass)
[4] = tested on: Oryza sativa; test: Phytotoxicity in Oryza sativa (rice) assessed as assessed as growth rate at 10 g/acre by Oryza sativa (rice) injury assay
[5] = tested on: Echinochloa crus-galli; test: Herbicidal activity against Echinochloa crus-galli (barnyard grass) assessed as growth rate at 3 g/acre
[6] = tested on: Echinochloa crus-galli; test: Herbicidal activity against Echinochloa crus-galli (barnyard grass) assessed as growth rate at 1 g/acre

| Compound | Activity [1] [%] | Activity [2] [%] | MIC [3] [µg/mL] | Activity [4] [%] | Activity [5] [%] | Activity [6] [%] |
| --- | --- | --- | --- | --- | --- | --- |
| CC[C@H]1O[C@@H]2c3ccccc3CO[C@@H]2[C@H]1OC1CCc2ccccc21 (stereo partly specified) | 91 | 0 | 0.3 (≈ 0.892 µM) | 91 | 41 |  |
| CC[C@H]1O[C@@H]2c3ccccc3CO[C@@H]2[C@H]1OCc1cccs1 | 91 | 0 | 0.8 (≈ 2.53 µM) | 91 | 11 | 91 |
| CC[C@H]1O[C@@H]2c3ccsc3CO[C@@H]2[C@H]1OCc1ccccc1F | 91 | 0 | 0.3 (≈ 0.897 µM) | 91 | 0 | 6 |
| CC[C@H]1O[C@@H]2c3ccccc3CO[C@@H]2[C@H]1OCc1cccc(F)c1 | 91 | 0 | 0.3 (≈ 0.914 µM) | 91 | 0 | 11 |
| CC[C@H]1O[C@@H]2c3ccccc3CO[C@@H]2[C@H]1O[Si](C)(C)C(C)(C)C | 91 | 91 | > 100 | 91 | 91 | 91 |
| CC[C@H]1O[C@@H]2c3ccccc3CO[C@@H]2[C@H]1OCc1ccccc1F | 11 | 0 | 0.2 (≈ 0.609 µM) | 71 | 6 | 11 |
| CC[C@H]1O[C@@H]2c3ccccc3C(C)O[C@@H]2[C@H]1OCc1ccccc1C (stereo partly specified) | 11 | 0 | 0.2 (≈ 0.591 µM) | 11 | 0 | 6 |
| CC[C@H]1O[C@@H]2c3ccccc3C(=O)O[C@@H]2[C@H]1OCc1ccccc1C | 91 | 11 | 3 (≈ 8.87 µM) | 91 |  |  |
| CC[C@@H]1O[C@@H]2[C@@H](OCc3ccccc3F)[C@@H](CC)O[C@@H]2c2ccccc21 | 0 | 0 | 0.4 (≈ 1.12 µM) |  | 11 | 91 |
| CC[C@H]1O[C@@H]2c3ccsc3CO[C@@H]2[C@H]1OCc1ccccc1C | 91 | 0 | 0.7 (≈ 2.12 µM) | 91 | 11 |  |
| CC[C@H]1O[C@@H]2c3ccccc3CO[C@@H]2[C@H]1OCc1cccc2ccccc12 | 91 | 91 | 10 (≈ 27.7 µM) | 91 | 91 | 91 |
| CC[C@H]1O[C@@H]2c3ccccc3CO[C@@H]2[C@H]1OCc1ccccc1 | 0 | 0 | 0.4 (≈ 1.29 µM) | 11 | 6 | 11 |
| CC[C@H]1O[C@@H]2c3sccc3CO[C@@H]2[C@H]1OCc1ccccc1F | 0 | 0 | 0.1 (≈ 0.299 µM) | 6 | 0 | 6 |
| CC[C@H]1O[C@@H]2c3sccc3COC2[C@H]1OCc1ccccc1C (single isomer, unassigned) | 91 | 0 | 0.1 (≈ 0.303 µM) | 91 | 0 | 6 |
| CC[C@H]1O[C@@H]2c3ccccc3CO[C@@H]2[C@H]1OCc1ccccc1C | 0 | 0 | 0.4 (≈ 1.23 µM) | 11 | 0 | 11 |
| CC[C@H]1O[C@@H]2c3ccccc3CO[C@@H]2[C@H]1OCc1ccccc1Cl | 91 | 0 | 0.2 (≈ 0.58 µM) | 91 | 6 |  |
| CC[C@H]1O[C@@H]2c3ccccc3[C@H](C)O[C@@H]2[C@H]1OCc1ccccc1F | 0 | 0 | 0.2 (≈ 0.584 µM) | 11 | 0 | 0 |
